Columns and labels:
[1] = Solubility of Compound A-7 in vehicles containing varying amounts of sorbitan monolaurate; format: physicochemical; details: 10 mM phosphate buffer, 0.2% polysorbate 20, saline, 0%-0.75% sorbitan laurate, 25° C., HPLC (FIG. 9)
Description: • a. Injection vehicles comprised of ca. 10 mM phosphate buffer, 0.2% polysorbate 20, saline and various amount of sorbitan laurate (0%-0.75%) were prepared. The injection vehicles were stirred for 4 hours before preparing suspension preparation. • b. Approximately 1.25±0.05 g of Compound A-7 were added to 15 mL injection vehicles in a 20-mL glass scintillation vial with a ⅞″× 5/16″ stirring bar. The suspension was vigorously stirred on Chemglass CG-1990-T-50 hotplate at 25° C. which was controlled using a thermal sensor. • c. At each time point, a total of 3 mL of -mixed suspension were transferred into two 1.5-mL centrifuge tubes using a plastic pipette. The tubes were centrifuged at 14,000 rpm for 4 minutes. The supernatant of both tubes were combined and centrifuged again at 14,000 rpm for 4 minutes. The HPLC sample was then prepared with final (2nd) centrifuged supernatant by diluting 0.4 mL supernatant with 0.6 mL THF. • d. Concentration of dissolved Compound A-7 was determined using HPLC.

[2] = Previous experiments on wetting of Compound A-7 solids load by polysorbate 20; format: physicochemical; details: 25.6 wt % solids load of Compound A-7 bulk recrystallized drug substance
[3] = cited from earlier work
[4] = tested on: rats; assay: Subcutaneous injection site reaction model; details: single SC injection, Day 10, formulations comprising sorbitan laurate compared to formulations with no sorbitan laurate (FIGS. 8A, 8B)
[5] = Wettability characterization: free energy of immersion and spreading coefficient of Compound A-7 in injection vehicles; format: physicochemical; details: recrystallized Compound A-7 against the named injection vehicle formulation; predicted from vehicle surface tension and solid surface energy
From the text: A surface energy measurement methodology was developed that would allow for facile screening of formulation candidates with minimal use of drug substance. These experiments utilize the surface tension of the injection vehicle and surface energy of the solid to predict the immersional free energy and spreading coefficient between the liquid and the solid.
A force-balance tensiometer (Attension Sigma® 701) with a platinum Wilhelmy plate was used to measure the surface energy (tension) of the vehicle of interest. This was done using a 30 mL sample of the vehicle of interest and taking 8 individual surface tension measurements. The first 3 measurements were discarded as being non-representative of equilibrium conditions, and the remaining measurements were averaged to give the surface tension value. […] To then obtain the polar and non-polar (dispersive) components of the surface tension, a polytetrafluoroethylene (PTFE) contact angle standard (Rame-Hart) was affixed to the tensiometer and the dynamic contact angle was measured. […]
With the total surface tension of the liquid, and the contact angle of the liquid on a non-polar surface with known surface energy attributes, the polar and dispersive components of the surface tension were calculated. […]

With `CCCCCCCCCCCC(=O)OCN1C(=O)CCc2ccc(OCCCCN3CCN(c4cccc(Cl)c4Cl)CC3)cc21` [Compound A-7, (7-(4-(4-(2,3-dichlorophenyl)piperazin-1-yl)butoxy)-2-oxo-3,4-dihydroquinolin-1(2H)-yl)methyl dodecanoate] the “solubility (concentration of dissolved Compound A-7)” value [1] was “decreases solubility up to 0.5 wt % SML with solubility increasing again above 0.5 wt. %” and the “polysorbate 20 required to adequately wet the drug substance” value [2] was “at least 0.1%”.
In the case of `O=C1CCc2ccc(OCCCCN3CCN(c4cccc(Cl)c4Cl)CC3)cc2N1` [aripiprazole (free base), 7-{4-[4-(2,3-dichlorophenyl)-1-piperazinyl]butoxy}-3,4-dihydro-2(1H)-quinolinone], the tissue irritation ([3]; following IM and SC injection) is listed as “unacceptable (moderate to severe) tissue irritation”, the pharmacokinetic profile ([3]; long-acting injections) is listed as “prolonged pharmacokinetic profile” and the “injection site reaction (weight of excised ISR)” value [4] is listed as “significant reduction in injection site reaction”.
For `Cc1cc2c(s1)Nc1ccccc1N=C2N1CCN(C)CC1.O.O=C(O)c1cc2ccccc2c(Cc2c(O)c(C(=O)O)cc3ccccc23)c1O` [olanzapine pamoate], the “injection site reaction (weight of excised ISR)” value [4] was “significant reduction in injection site reaction”.
In the case of Water, the “FREE ENERGY OF IMMERSION” value [5] is reported as 10 mN/m and the “SPREADING COEFFICIENT” value [5] is reported as −83.3 mN/m.
